Source: patent US12437835B2, “Interrogatory cell-based assays and uses thereof” (Berg LLC, priority 2012, dated 2025)
“Also recorded” adds a separate entry of the source.

Columns and labels:
[1] = target: FASN (Mus musculus, UniProt P19096); conditions: in vivo; cited from earlier work
[2] = target: T1, ENO1 (Homo sapiens, UniProt P06733); test: Global enzyme activity analysis (ATP/ADP probe, LC-MS/MS) in HepG2; type: cell-based; conditions: HepG2, Sorafenib 1 μM, 24 hours; relative to control, untreated sample
T1 construct: endogenous in cells; host or cells: HepG2 (ATCC HB-8065)
Text: (§1) Multikinase inhibitor Sorafenib, a first line chemotherapeutic agent for the advanced HCC patients, was used to probe the role of global kinase activity and protein phosphorylation changes associated with this treatment. The HepG2 (ATCC Ascension No. HB-8065) cell line was selected to model HCC cells and the THLE2 (ATCC Ascension No. CRL-10149) cell line was selected to model normal hepatic cells.
(§2) FIG. 41B illustrates a method for global enzyme (e.g., kinase) enrichment profiling. First, a cell lysate including the targeted enzyme (e.g., kinase) is parepared. The second step is probe binding (e.g., an ATP probe in the case of kinase). Theny the enzyme is digested and brobe-bound fragments are captured. These fragments can be analyzed (e.g., by LC-MS/MS) and the corresponding protein thus identified (e.g., via a database search of the LC-Ms/MS data).
(§3) THERMO SCIENTIFIC© PIERCE® Kinase Enrichment Kits and ACTIVX© probes (instructions available from THERMO SCIENTIFIC© and PIERCE® Biotechnology www.thermoscientific.com/pierce) were used for global enzyme activity analysis. Briefly, these and similar kits enable selective labeling and enrichment of ATPases including kinases, chaperones and metabolic enzymes. ATP and ADP Probes are generally nucleotide derivatives, which covalently modify the active site of enzymes with conserved lysine residues in the nucleotide-binding site. For example, the structure of desthiobiotin-ATP and -ADP consists of a modified biotin attached to the nucleotide by a labile acyl-phosphate bond. Depending on the position of the lysine within the enzyme active site, either desthiobiotin-ATP or -ADP can be preferred for labeling specific ATPases.
(§4) The cells were cultured according to the following protocol. Day 1: HepG2/Hep3B—seed 3.2×10^6 cells in T-75 culture flasks; 7.4×10^6 cells in T-175 culture flasks; or 9.5×10^6 cells in T-225 culture flasks. THLE-2—seed 1.3×10^6 cells in T-75 culture flasks. Day 2: 16-24 hours later, at 50-70% confluence—add treatment. Control: DMSO at final concentration of 0.01%. EGF: 500 ng/mL in 10 mM acetic acid. […]

[3] = target: T2, LDHA (Homo sapiens, UniProt P00338); test: as above; type: cell-based; conditions: HepG2, Sorafenib 1 μM, 24 hours
T2 construct: endogenous in cells; host or cells: HepG2
Text: as §1, §2, §3, §4

[4] = target: T3, PGK1 (Homo sapiens, UniProt P00558); test: as above; type: cell-based; conditions: HepG2, Sorafenib 1 μM, 24 hours
T3 construct: endogenous in cells; host or cells: HepG2 (ATCC HB-8065)
T3 sequence (P00558 1-417): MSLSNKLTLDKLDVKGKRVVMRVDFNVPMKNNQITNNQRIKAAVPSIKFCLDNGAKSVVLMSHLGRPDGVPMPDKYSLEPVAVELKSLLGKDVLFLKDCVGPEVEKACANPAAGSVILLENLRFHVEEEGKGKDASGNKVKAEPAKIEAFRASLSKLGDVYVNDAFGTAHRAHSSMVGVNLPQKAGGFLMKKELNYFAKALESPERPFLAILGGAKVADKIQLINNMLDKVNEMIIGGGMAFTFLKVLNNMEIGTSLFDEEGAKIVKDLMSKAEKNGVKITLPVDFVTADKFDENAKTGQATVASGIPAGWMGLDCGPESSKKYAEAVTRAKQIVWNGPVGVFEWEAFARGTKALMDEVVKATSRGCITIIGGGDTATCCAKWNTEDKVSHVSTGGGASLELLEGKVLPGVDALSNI
Text: as §1, §2, §3, §4

[5] = tested on: LDHA; test: Protein expression (quantitative proteomics) in HepG2; type: cell-based, Homo sapiens; conditions: HepG2, Sorafenib 1 μM, 24 hours
Description: as §1
The cells were cultured according to the following protocol. Day 1: HepG2/Hep3B—seed 3.2×10^6 cells in T-75 culture flasks; 7.4×10^6 cells in T-175 culture flasks; or 9.5×10^6 cells in T-225 culture flasks. THLE-2—seed 1.3×10^6 cells in T-75 culture flasks. Day 2: 16-24 hours later, at 50-70% confluence—add treatment. Control: DMSO at final concentration of 0.01%. EGF: 500 ng/mL in 10 mM acetic acid. Sorafenib: 1 μM at 0.1% volume in DMSO. Day 3: 24 hours after treatment, harvest cells by trypsinization. Wash pellets 2× with PBS before freezing.
Thus, the phospho proteome affords an additional layer of information that can be used for elucidating the complex relationship between the effect of an extracellular signal (e.g., drug molecule) on kinase activity and total cellular protein, thereby facilitating the identification of disease treatment targets, as well as diagnostic/prognostic markers associated with disease.

FASN, sequence (P19096 whole entry): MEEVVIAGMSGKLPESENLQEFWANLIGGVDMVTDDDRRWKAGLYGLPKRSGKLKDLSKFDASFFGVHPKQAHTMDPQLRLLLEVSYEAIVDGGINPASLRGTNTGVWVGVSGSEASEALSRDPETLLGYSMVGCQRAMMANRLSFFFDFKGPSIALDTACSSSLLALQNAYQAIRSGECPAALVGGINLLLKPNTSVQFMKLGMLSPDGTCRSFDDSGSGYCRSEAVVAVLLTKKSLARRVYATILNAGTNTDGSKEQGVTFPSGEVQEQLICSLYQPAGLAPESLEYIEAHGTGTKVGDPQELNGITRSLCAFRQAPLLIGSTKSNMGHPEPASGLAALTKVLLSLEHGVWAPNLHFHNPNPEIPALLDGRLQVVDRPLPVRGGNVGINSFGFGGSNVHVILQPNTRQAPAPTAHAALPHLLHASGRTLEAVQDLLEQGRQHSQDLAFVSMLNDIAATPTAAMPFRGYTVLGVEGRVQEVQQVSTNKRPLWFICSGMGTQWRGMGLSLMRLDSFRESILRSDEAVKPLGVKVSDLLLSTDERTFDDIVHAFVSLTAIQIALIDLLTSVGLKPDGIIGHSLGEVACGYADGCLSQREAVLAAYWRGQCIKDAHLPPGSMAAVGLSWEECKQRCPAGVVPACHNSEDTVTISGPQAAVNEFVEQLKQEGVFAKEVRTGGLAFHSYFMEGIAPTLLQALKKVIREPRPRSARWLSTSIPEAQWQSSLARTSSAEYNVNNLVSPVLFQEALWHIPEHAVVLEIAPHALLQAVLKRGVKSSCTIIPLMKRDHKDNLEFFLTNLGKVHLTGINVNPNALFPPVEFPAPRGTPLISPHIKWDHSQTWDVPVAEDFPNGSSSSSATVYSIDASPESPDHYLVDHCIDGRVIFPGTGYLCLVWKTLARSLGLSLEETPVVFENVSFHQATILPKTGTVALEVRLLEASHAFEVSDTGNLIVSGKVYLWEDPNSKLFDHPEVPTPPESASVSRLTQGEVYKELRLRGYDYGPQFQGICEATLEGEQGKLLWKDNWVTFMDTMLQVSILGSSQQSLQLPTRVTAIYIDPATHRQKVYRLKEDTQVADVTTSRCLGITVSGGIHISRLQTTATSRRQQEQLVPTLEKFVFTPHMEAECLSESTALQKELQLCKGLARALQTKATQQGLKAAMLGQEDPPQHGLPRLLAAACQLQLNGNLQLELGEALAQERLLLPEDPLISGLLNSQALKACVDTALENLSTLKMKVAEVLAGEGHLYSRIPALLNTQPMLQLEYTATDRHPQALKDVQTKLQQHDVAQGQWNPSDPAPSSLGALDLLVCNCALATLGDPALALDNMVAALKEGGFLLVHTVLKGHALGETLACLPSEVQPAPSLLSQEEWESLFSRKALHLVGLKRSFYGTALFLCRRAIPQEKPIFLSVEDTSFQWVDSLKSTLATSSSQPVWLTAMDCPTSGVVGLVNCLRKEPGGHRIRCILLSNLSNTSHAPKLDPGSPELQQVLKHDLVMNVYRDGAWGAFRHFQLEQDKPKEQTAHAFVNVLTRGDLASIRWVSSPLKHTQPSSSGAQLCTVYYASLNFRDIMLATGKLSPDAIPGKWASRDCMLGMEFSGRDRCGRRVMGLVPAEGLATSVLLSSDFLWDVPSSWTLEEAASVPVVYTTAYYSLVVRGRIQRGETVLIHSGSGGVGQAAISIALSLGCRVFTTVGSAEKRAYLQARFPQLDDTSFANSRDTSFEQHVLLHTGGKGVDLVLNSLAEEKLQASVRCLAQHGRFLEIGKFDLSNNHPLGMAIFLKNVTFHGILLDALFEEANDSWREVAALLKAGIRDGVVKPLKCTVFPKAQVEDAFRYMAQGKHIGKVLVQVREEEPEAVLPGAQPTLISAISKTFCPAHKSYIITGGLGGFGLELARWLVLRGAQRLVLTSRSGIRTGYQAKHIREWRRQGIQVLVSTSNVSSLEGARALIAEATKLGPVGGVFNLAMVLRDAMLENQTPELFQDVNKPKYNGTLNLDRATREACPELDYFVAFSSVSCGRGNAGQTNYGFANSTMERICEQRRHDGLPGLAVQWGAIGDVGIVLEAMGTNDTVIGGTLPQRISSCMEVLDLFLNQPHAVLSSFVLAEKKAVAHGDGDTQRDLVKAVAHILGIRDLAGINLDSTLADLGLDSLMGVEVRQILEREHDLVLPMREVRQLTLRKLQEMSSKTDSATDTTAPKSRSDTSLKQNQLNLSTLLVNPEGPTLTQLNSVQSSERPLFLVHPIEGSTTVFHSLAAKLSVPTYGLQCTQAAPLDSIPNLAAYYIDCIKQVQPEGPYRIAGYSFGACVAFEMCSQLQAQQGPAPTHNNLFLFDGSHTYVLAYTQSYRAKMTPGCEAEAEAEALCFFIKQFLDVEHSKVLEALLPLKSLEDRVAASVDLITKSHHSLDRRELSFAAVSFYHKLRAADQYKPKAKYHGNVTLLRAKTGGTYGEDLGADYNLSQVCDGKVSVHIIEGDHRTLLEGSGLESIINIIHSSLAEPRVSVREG
T1 sequence (P06733 whole entry): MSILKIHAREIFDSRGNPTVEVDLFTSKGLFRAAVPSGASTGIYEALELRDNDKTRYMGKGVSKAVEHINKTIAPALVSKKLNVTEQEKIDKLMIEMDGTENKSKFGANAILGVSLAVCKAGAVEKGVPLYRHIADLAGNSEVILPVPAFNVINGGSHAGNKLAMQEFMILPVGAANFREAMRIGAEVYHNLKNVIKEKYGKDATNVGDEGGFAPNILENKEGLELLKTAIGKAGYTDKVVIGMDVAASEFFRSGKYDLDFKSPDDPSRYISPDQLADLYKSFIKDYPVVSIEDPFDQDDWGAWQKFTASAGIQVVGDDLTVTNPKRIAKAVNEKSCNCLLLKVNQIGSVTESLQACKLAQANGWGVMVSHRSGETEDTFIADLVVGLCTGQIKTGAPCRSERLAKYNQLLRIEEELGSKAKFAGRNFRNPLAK

Compound	food intake [1]	weight loss [1]	ENO1 activity [2]	LDHA activity [3]	PGK1 activity [4]	LDHA protein expression [5]
C=C1C(=O)OC(CCCCCCCC)C1C(=O)O (centres unmarked) [C75]	reducing food intake	weight loss	–	–	–	–
C/C=C/C/C=C/CCC(=O)[C@H]1O[C@H]1C(N)=O [Cerulenin]	reducing food intake	weight loss	–	–	–	–
CNC(=O)c1cc(Oc2ccc(NC(=O)Nc3ccc(Cl)c(C(F)(F)F)c3)cc2)ccn1 [Sorafenib]	–	–	significant decrease; also recorded: downregulating	significant decrease; also recorded: downregulating	significant decrease; also recorded: downregulating	upregulation
